Where a SMILES comes first, the peptide text is derived from it. Bridges are numbered along the chain shown (N, C = ends). [ ]: non-standard residue; d: D form. The star is where a group is joined. Octanoyl = CCCCCCCC(=O)*; Dab = NCC[C@H](N)C(=O)O; Abu = CC[C@H](N)C(=O)O
Legend:
[1] = tested on: neutrophil/platelet aggregates in human blood; type: cell-based
[2] = tested on: monocyte/platelet aggregates in human blood; type: cell-based
Shiga toxin 2 = Shiga toxin 2 (Escherichia phage 933W, UniProt P09385); assay: biochemical; type: binding
Shiga toxin 2, sequence (P09385 whole entry, looked up): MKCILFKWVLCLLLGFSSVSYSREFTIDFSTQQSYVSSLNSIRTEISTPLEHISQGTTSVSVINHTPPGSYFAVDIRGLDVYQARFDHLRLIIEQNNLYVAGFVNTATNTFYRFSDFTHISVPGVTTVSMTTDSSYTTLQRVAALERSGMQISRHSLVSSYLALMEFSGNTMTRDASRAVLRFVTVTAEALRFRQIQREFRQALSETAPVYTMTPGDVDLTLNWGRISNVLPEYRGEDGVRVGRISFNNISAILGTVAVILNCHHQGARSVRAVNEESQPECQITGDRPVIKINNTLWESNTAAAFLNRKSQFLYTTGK

[3] = target: T1, binding of Shiga toxin 2 to human neutrophils expressing the TLR4 (Escherichia phage 933W, UniProt P09385); assay: cell-based; type: cell-based
T1 sequence (P09385 whole entry, looked up): as above

[4] = tested on: Raji cells (Burkitt lymphoma); type: cell-based, human
[5] = target: T1, binding of Shiga toxin 2 to human neutrophils expressing the TLR4; details: cited from earlier work
[6] = tested on: Raji cells (Burkitt lymphoma); details: cited from earlier work
human renal tubule cells = details: cited from earlier work

CCCCCCCC(=O)N[C@@H](CCN)C(=O)N[C@H](C(=O)N[C@@H](C(=O)N[C@H]1CCNC(=O)[C@H]([C@@H](C)O)NC(=O)[C@H](CCN)NC(=O)[C@H](CC)NC(=O)[C@H](CC(C)C)NC(=O)[C@@H](Cc2ccccc2)NC(=O)[C@H](CCN)NC1=O)[C@H](C)O)[C@@H](C)O [NAB815, OA-Dab-Thr-DThr-cy[Dab-Dab-DPhe-Leu-Abu-Dab-Thr-]] (Octanoyl-[Dab]T[dT][Dab][Dab][dF]L[Abu][Dab]T; lactam 4-C)
inhibition of formation of neutrophil/platelet aggregates [1]: more than 70% | inhibition of formation of monocyte/platelet aggregates [2]: more than 70% | Kd (Shiga toxin 2): 5 nM | maximum reduction of the fluorescence emission (Shiga toxin 2): approximately 10% | inhibition of the binding of Shiga toxin 2 to the neutrophil (in words) [3]: strong inhibitor | IC50 ([3]; IC50 (concentration determining a 50% inhibition) of binding of Shiga toxin 2 to neutrophils): 48.5 nM | IC50 ([3]; concentration inhibiting binding of Shiga toxin 2 to neutrophils by 50%): 43 nM | protection of Raji cells from Shiga toxin 2 intoxication (protein synthesis) [4]: no protective effect

Ac-Thr-DSer-cy[Dab-Dab-DPhe-Leu-Dab-Dab-Thr-] [NAB741, reference compound]
inhibition of the binding of Shiga toxin 2 to the neutrophil (in words) [3]: scarcely effective

MOA/MHA-Dab-Thr-Dab-cy[Dab-Dab-DPhe-Leu-Dab-Dab-Thr-] [polymyxin B]
IC50 of binding of Shiga toxin 2 to neutrophils [5]: 3.5 µg/mL | protection of Raji cells from Shiga toxin 2 intoxication [6]: no protective effect | effect on formation of neutrophil/platelet aggregates (in words) [1]: not effective | effect on formation of monocyte/platelet aggregates (in words) [2]: not effective | cytotoxicity IC50 (human renal tubule cells): 18 µg/mL

OA-Thr-Abu-cy[Dab-Dab-DPhe-Leu-Dab-Dab-Thr-] [NAB7061, reference compound]
inhibition of the binding of Shiga toxin 2 to the neutrophil (in words) [3]: scarcely effective

Reference: patent US12472225B2 (priority 2019, dated 2025)
